According to US20090054521A1, “ZWITTERIONIC COMPOUNDS AND USE THEREOF” (Evonik Goldschmidt GmbH, priority 2007, published 2009):

What was measured:
[1] = system: skin models (reconstituted human epidermis, SkinEthic); experiment: Anti-inflammatory effect (IL-1α) of an O/W cream after SDS damage; assay type: cell-based; conditions: no test formulation, summed IL-1α after 24 and 48 h
Description: IL1-α is a messenger which plays a central role in inflammatory reactions in the body. Sodium lauryl sulphate (SDS) is a skin-irritative surfactant which can cause an irritative contact dermatitis in people, is used as model irritative in subject studies and, inter alia, induces the release of IL-1α. The IL-1α concentration was determined using a commercially available test kit (human IL-1α immunoassay, R&D Systems GmbH, Wiesbaden, Germany).
The aim was to investigate whether the anti-inflammatory effect of the compounds according to the invention is also present upon application from a cosmetic formulation. For this purpose, skin models were damaged with SDS. The test formulation was then applied. 24 and 48 h after the application, the Il-1α concentration was determined.

[2] = system: skin models (reconstituted human epidermis, SkinEthic); experiment: LDH release following damage to the cells with SDS, O/W cream; conditions: SDS damage for 40 min, no test formulation; total LDH after 24 and 48 h
Description: The LDH concentration was determined using a commercially available test kit (LDH test kit, Roche Diagnostics, Mannheim, Germany).
Sodium dodecyl sulphate (SDS) is known to attack the cell membrane and lead to increased LDH release. Using the experiment described below, the aim was to investigate to what extent Compound 2.1 can protect the cells following damage with SDS.
The skin models were damaged with SDS for 40 min. The test formulation, an O/W cream with 1 or 4% of Compound 2.1, was then applied. The LDH release was measured 24 and 48 h after application of the test formulation.

Structure (SMILES): CCCCCCCCCCCCOS(=O)(=O)[O-].[Na+] [SDS, Sodium dodecyl sulphate]
- formation of the cytokine IL-1α as a result of the damage [1]: increased greatly
- LDH release as a result of the damage [2]: increased greatly
